Test system: Spodoptera litura
Test: Antifeedant activity in Spodoptera litura assessed as feeding ratio at 0.1% of the diet
Assay type: functional

SMILES: C/C=C/C(=O)c1c(OC)cc(OC)cc1OC
- Activity: 50.5%

Reference: ChEMBL document CHEMBL3044769, “A brief synthesis of natural antifeedant, 1-(2,4,6-trimethoxyphenyl) but-2(E)-en-1-one” (1994)
